Experimental data from PMC3228837 (Journal of medicinal chemistry, 2011).

What was measured:
NaV1.2 = NaV1.2 (Rattus norvegicus, UniProt P04775); type: cell-based
NaV1.6 = NaV1.6 (Mus musculus, UniProt Q9WTU3); type: cell-based
Chain of NaV1.6 (Q9WTU3 whole entry, looked up): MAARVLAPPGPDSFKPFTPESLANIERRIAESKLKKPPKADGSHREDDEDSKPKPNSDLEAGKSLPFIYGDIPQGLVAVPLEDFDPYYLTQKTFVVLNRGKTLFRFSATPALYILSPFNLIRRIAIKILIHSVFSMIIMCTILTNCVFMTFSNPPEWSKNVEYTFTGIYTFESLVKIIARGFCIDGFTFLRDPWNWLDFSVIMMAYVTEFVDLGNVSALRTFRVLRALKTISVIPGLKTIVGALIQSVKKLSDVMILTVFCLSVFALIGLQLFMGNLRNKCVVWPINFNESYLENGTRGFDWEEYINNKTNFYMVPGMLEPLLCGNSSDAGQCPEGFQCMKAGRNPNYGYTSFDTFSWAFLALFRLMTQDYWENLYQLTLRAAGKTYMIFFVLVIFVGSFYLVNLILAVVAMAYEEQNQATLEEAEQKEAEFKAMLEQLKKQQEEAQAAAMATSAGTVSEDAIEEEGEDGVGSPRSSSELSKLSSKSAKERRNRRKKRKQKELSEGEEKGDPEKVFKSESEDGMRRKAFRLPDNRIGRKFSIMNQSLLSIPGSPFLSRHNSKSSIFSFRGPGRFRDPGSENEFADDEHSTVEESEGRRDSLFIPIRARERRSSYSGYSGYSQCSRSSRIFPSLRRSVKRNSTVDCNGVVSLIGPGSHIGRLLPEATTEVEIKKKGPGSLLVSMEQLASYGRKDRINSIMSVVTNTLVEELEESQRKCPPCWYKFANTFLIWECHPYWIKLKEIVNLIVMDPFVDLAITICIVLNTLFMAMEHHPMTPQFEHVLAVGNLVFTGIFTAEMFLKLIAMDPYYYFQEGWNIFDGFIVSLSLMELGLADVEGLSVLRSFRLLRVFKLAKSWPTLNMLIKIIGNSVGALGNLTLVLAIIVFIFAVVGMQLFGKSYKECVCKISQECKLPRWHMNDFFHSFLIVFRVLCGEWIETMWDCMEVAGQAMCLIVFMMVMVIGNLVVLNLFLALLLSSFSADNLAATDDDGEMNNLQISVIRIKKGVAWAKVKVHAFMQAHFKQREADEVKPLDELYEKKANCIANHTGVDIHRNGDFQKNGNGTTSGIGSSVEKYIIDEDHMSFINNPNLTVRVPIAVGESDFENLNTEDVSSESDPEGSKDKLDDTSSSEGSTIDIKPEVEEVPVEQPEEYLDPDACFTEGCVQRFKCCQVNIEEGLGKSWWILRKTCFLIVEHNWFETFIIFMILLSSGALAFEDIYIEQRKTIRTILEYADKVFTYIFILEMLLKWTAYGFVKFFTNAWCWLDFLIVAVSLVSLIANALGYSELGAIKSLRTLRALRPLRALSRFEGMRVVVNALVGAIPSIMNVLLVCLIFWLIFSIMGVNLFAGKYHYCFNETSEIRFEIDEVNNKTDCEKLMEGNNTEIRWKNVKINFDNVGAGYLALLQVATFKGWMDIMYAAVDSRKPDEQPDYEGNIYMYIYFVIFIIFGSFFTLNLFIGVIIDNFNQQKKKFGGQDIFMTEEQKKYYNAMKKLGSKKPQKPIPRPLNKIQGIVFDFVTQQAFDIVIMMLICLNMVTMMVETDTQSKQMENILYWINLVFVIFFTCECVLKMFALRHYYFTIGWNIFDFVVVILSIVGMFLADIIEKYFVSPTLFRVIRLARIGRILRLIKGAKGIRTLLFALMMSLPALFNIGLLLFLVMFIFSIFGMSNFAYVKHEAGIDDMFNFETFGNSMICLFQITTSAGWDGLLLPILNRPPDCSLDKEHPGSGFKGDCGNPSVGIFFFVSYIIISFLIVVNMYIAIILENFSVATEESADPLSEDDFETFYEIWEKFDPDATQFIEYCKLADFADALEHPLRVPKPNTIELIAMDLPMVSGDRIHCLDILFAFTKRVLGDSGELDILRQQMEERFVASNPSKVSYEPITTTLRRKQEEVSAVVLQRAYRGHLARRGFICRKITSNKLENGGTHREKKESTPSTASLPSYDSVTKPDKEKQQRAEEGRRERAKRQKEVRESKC

Chain of NaV1.2 (P04775 whole entry, looked up): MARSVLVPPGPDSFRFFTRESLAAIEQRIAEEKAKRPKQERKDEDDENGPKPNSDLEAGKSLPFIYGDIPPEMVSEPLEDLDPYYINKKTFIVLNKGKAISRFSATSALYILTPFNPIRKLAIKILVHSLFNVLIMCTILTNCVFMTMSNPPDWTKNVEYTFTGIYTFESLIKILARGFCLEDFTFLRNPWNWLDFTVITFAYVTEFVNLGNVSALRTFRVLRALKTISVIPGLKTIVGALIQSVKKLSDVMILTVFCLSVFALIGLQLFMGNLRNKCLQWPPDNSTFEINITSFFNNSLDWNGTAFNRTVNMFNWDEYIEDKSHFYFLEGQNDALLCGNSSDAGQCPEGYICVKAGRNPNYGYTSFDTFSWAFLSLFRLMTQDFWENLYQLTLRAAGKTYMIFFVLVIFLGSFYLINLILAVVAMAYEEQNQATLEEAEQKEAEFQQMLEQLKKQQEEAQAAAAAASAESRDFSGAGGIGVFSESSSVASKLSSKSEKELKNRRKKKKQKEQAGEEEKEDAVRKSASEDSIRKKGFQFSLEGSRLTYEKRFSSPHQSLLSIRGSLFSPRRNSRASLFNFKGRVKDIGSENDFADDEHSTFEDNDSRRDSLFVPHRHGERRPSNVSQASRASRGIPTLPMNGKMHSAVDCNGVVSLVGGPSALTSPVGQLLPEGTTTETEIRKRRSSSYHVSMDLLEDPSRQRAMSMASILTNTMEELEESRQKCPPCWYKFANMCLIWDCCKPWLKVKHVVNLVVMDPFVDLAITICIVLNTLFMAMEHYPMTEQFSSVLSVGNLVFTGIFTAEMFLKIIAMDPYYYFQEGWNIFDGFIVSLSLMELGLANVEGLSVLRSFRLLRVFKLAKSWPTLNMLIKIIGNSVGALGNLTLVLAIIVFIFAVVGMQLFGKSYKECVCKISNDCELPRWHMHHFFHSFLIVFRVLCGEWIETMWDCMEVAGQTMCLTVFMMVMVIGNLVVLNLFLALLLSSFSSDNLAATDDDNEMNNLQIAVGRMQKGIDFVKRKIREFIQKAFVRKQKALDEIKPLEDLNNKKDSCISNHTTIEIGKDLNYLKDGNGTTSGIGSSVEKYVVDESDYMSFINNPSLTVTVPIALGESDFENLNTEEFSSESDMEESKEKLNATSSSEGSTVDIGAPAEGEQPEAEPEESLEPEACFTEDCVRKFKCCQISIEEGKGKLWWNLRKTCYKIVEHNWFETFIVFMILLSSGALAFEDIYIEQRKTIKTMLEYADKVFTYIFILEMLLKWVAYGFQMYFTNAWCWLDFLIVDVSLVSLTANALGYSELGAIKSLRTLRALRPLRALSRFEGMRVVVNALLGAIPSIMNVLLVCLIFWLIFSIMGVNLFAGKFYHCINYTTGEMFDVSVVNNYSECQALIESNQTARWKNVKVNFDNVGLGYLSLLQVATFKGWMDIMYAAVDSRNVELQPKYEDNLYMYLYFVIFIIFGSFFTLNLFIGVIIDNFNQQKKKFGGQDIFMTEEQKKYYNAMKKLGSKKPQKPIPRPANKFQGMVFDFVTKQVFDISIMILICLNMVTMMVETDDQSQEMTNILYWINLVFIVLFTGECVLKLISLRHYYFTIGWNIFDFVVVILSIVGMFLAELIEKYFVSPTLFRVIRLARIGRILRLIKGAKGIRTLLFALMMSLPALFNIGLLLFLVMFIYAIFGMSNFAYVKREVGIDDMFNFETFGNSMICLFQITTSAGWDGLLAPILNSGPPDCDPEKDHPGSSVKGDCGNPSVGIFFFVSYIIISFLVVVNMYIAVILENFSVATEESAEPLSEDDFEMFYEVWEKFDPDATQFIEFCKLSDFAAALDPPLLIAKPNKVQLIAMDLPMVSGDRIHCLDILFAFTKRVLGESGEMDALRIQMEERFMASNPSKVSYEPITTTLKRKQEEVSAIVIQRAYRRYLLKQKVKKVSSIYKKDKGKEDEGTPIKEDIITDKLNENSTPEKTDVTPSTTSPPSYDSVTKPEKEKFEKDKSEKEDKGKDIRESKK

Substance: Ac-DSKWKRDHSR-NH2 [Peptide D5K9]
- % block of NaV1.2 (NaV1.2): 33.1 ± 0.9%
- % block of NaV1.6 (NaV1.6): 36.0 ± 0.7%
